What was measured:
Assay in all cases: relative viability (nuclei count vs DMSO), 5 days (fraction); higher = more cells survive
[1] = test system: NCI-H2347
Summary of the method: (§1)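 Five library-drug doses in √10 steps were combined with a fixed anchor-drug dose, or a single drug was given alone, by pin tool to lung cancer cell lines in 1536-well plates the day after seeding. Nuclei were stained and counted after 5 days. Relative viability is the nuclei count in treated wells over that in vehicle wells, taken as the median of duplicate plates.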

[2] = test system: NCI-H727
Summary of the method: as §1

[3] = test system: UMC-11
Summary of the method: as §1

[4] = test system: 201T
Summary of the method: as §1

[5] = test system: NCI-H1650
Summary of the method: as §1

[6] = test system: NCI-H1734
Summary of the method: as §1

[7] = test system: NCI-H1355
Summary of the method: as §1

[8] = test system: HCC-78
Summary of the method: as §1

[9] = test system: HCC-44
Summary of the method: as §1

[10] = test system: HCC-366
Summary of the method: as §1

[11] = test system: ABC-1
Summary of the method: as §1

[12] = test system: NCI-H838
Summary of the method: as §1

[13] = test system: NCI-H1666
Summary of the method: as §1

[14] = test system: NCI-H358
Summary of the method: as §1

[15] = test system: NCI-H2228
Summary of the method: as §1

[16] = test system: LK-2
Summary of the method: as §1

[17] = test system: BEN
Summary of the method: as §1

[18] = test system: NCI-H2009
Summary of the method: as §1

[19] = test system: LOU-NH91
Summary of the method: as §1

[20] = test system: IA-LM
Summary of the method: as §1

[21] = test system: NCI-H2405
Summary of the method: as §1

[22] = test system: NCI-H520
Summary of the method: as §1

[23] = test system: SW 1573
Summary of the method: as §1

[24] = test system: NCI-H1755
Summary of the method: as §1

**Q.** `CCCCCCCCCCCC1=C(O)C(=O)C=C(O)C1=O` [Embelin] + O=C(CCCCCCC(=O)Nc1ccccc1)NO [Vorinostat] (partner 1 µM) was tested. Which relative viability ([1]; first compound 0.08 µM) did it give?
**A.** 0.557

**Q.** And the relative viability ([1]; first compound 0.8 µM)?
**A.** 0.628

**Q.** And the relative viability ([1]; first compound 2.53 µM)?
**A.** 0.513

**Q.** And the relative viability ([1]; first compound 8 µM)?
**A.** 0.656

**Q.** And the relative viability ([2]; first compound 0.08 µM)?
**A.** 1.31

**Q.** And the relative viability ([2]; first compound 0.8 µM)?
**A.** 1.11

**Q.** What about the relative viability ([2]; first compound 2.53 µM) of the same compound?
**A.** 1.32

**Q.** And the relative viability ([2]; first compound 8 µM)?
**A.** 1.22

**Q.** What about the relative viability ([3]; first compound 0.08 µM) of the same compound?
**A.** 0.39

**Q.** What about the relative viability ([3]; first compound 0.8 µM) of the same compound?
**A.** 0.407

**Q.** What about the relative viability ([3]; first compound 2.53 µM) of the same compound?
**A.** 0.372

**Q.** And the relative viability ([3]; first compound 8 µM)?
**A.** 0.393

**Q.** And the relative viability ([4]; first compound 0.08 µM)?
**A.** 0.993

**Q.** What about the relative viability ([4]; first compound 0.8 µM) of the same compound?
**A.** 1.01

**Q.** What about the relative viability ([4]; first compound 2.53 µM) of the same compound?
**A.** 1.04

**Q.** What about the relative viability ([4]; first compound 8 µM) of the same compound?
**A.** 0.851

**Q.** What about the relative viability ([5]; first compound 0.08 µM) of the same compound?
**A.** 0.634

**Q.** And the relative viability ([5]; first compound 0.8 µM)?
**A.** 0.641

**Q.** What about the relative viability ([5]; first compound 2.53 µM) of the same compound?
**A.** 0.543

**Q.** And the relative viability ([5]; first compound 8 µM)?
**A.** 0.562

**Q.** And the relative viability ([6]; first compound 0.08 µM)?
**A.** 0.868

**Q.** What about the relative viability ([6]; first compound 0.8 µM) of the same compound?
**A.** 0.968

**Q.** And the relative viability ([6]; first compound 2.53 µM)?
**A.** 0.929

**Q.** What about the relative viability ([6]; first compound 8 µM) of the same compound?
**A.** 0.749

**Q.** And the relative viability ([7]; first compound 0.08 µM)?
**A.** 0.649

**Q.** What about the relative viability ([7]; first compound 0.8 µM) of the same compound?
**A.** 0.699

**Q.** What about the relative viability ([7]; first compound 2.53 µM) of the same compound?
**A.** 0.636

**Q.** What about the relative viability ([7]; first compound 8 µM) of the same compound?
**A.** 0.523

**Q.** What about the relative viability ([8]; first compound 0.08 µM) of the same compound?
**A.** 0.467

**Q.** And the relative viability ([8]; first compound 0.8 µM)?
**A.** 0.547

**Q.** And the relative viability ([8]; first compound 2.53 µM)?
**A.** 0.553

**Q.** And the relative viability ([8]; first compound 8 µM)?
**A.** 0.401

**Q.** And the relative viability ([9]; first compound 0.08 µM)?
**A.** 1.09

**Q.** What about the relative viability ([9]; first compound 0.8 µM) of the same compound?
**A.** 1.08

**Q.** And the relative viability ([9]; first compound 2.53 µM)?
**A.** 1.12

**Q.** What about the relative viability ([9]; first compound 8 µM) of the same compound?
**A.** 1.2

**Q.** What about the relative viability ([10]; first compound 0.08 µM) of the same compound?
**A.** 0.409

**Q.** What about the relative viability ([10]; first compound 0.8 µM) of the same compound?
**A.** 0.412

**Q.** What about the relative viability ([10]; first compound 2.53 µM) of the same compound?
**A.** 0.364

**Q.** And the relative viability ([10]; first compound 8 µM)?
**A.** 0.268

**Q.** And the relative viability ([11]; first compound 0.08 µM)?
**A.** 1.04

**Q.** What about the relative viability ([11]; first compound 0.8 µM) of the same compound?
**A.** 1.48

**Q.** What about the relative viability ([11]; first compound 2.53 µM) of the same compound?
**A.** 0.955

**Q.** And the relative viability ([11]; first compound 8 µM)?
**A.** 0.86

**Q.** What about the relative viability ([12]; first compound 0.08 µM) of the same compound?
**A.** 0.746

**Q.** And the relative viability ([12]; first compound 0.8 µM)?
**A.** 0.835

**Q.** And the relative viability ([12]; first compound 2.53 µM)?
**A.** 0.782

**Q.** And the relative viability ([12]; first compound 8 µM)?
**A.** 0.704

**Q.** And the relative viability ([13]; first compound 0.08 µM)?
**A.** 1.07

**Q.** What about the relative viability ([13]; first compound 0.8 µM) of the same compound?
**A.** 1.03

**Q.** What about the relative viability ([13]; first compound 2.53 µM) of the same compound?
**A.** 1.09

**Q.** And the relative viability ([13]; first compound 8 µM)?
**A.** 1.05

**Q.** And the relative viability ([14]; first compound 0.08 µM)?
**A.** 0.699

**Q.** And the relative viability ([14]; first compound 0.8 µM)?
**A.** 0.876

**Q.** What about the relative viability ([14]; first compound 2.53 µM) of the same compound?
**A.** 0.707

**Q.** What about the relative viability ([14]; first compound 8 µM) of the same compound?
**A.** 0.697

**Q.** What about the relative viability ([15]; first compound 0.08 µM) of the same compound?
**A.** 0.407

**Q.** And the relative viability ([15]; first compound 0.8 µM)?
**A.** 0.819

**Q.** What about the relative viability ([15]; first compound 2.53 µM) of the same compound?
**A.** 0.36

**Q.** What about the relative viability ([15]; first compound 8 µM) of the same compound?
**A.** 0.85

**Q.** And the relative viability ([16]; first compound 0.08 µM)?
**A.** 0.308

**Q.** And the relative viability ([16]; first compound 0.8 µM)?
**A.** 0.28

**Q.** And the relative viability ([16]; first compound 2.53 µM)?
**A.** 0.261

**Q.** And the relative viability ([16]; first compound 8 µM)?
**A.** 0.307

**Q.** And the relative viability ([17]; first compound 0.08 µM)?
**A.** 0.57

**Q.** What about the relative viability ([17]; first compound 0.8 µM) of the same compound?
**A.** 0.613

**Q.** And the relative viability ([17]; first compound 2.53 µM)?
**A.** 0.647

**Q.** What about the relative viability ([17]; first compound 8 µM) of the same compound?
**A.** 0.515

**Q.** What about the relative viability ([18]; first compound 0.08 µM) of the same compound?
**A.** 0.748

**Q.** What about the relative viability ([18]; first compound 0.8 µM) of the same compound?
**A.** 0.837

**Q.** What about the relative viability ([18]; first compound 2.53 µM) of the same compound?
**A.** 0.705

**Q.** What about the relative viability ([18]; first compound 8 µM) of the same compound?
**A.** 0.748

**Q.** And the relative viability ([19]; first compound 0.08 µM)?
**A.** 0.939

**Q.** What about the relative viability ([19]; first compound 0.8 µM) of the same compound?
**A.** 1.2

**Q.** What about the relative viability ([19]; first compound 2.53 µM) of the same compound?
**A.** 0.933

**Q.** And the relative viability ([19]; first compound 8 µM)?
**A.** 0.876

**Q.** What about the relative viability ([20]; first compound 0.08 µM) of the same compound?
**A.** 0.963

**Q.** What about the relative viability ([20]; first compound 0.8 µM) of the same compound?
**A.** 1.03

**Q.** And the relative viability ([20]; first compound 2.53 µM)?
**A.** 1.2

**Q.** And the relative viability ([20]; first compound 8 µM)?
**A.** 0.937

**Q.** What about the relative viability ([21]; first compound 0.08 µM) of the same compound?
**A.** 1.01

**Q.** What about the relative viability ([21]; first compound 0.8 µM) of the same compound?
**A.** 1.13

**Q.** And the relative viability ([21]; first compound 2.53 µM)?
**A.** 0.95

**Q.** What about the relative viability ([21]; first compound 8 µM) of the same compound?
**A.** 0.899

**Q.** What about the relative viability ([22]; first compound 0.08 µM) of the same compound?
**A.** 0.741

**Q.** What about the relative viability ([22]; first compound 0.8 µM) of the same compound?
**A.** 0.816

**Q.** What about the relative viability ([22]; first compound 2.53 µM) of the same compound?
**A.** 0.75

**Q.** And the relative viability ([22]; first compound 8 µM)?
**A.** 0.573

**Q.** What about the relative viability ([23]; first compound 0.08 µM) of the same compound?
**A.** 0.7

**Q.** And the relative viability ([23]; first compound 0.8 µM)?
**A.** 1.1

**Q.** And the relative viability ([23]; first compound 2.53 µM)?
**A.** 0.817

**Q.** And the relative viability ([23]; first compound 8 µM)?
**A.** 0.716

**Q.** What about the relative viability ([24]; first compound 0.08 µM) of the same compound?
**A.** 0.723

**Q.** And the relative viability ([24]; first compound 0.8 µM)?
**A.** 0.813

**Q.** What about the relative viability ([24]; first compound 2.53 µM) of the same compound?
**A.** 0.809

**Q.** What about the relative viability ([24]; first compound 8 µM) of the same compound?
**A.** 0.574

Reference: the supplement of paper PMC10307832
